This note sets out measurements from patent publication US10513524B2, “PDE9 inhibitors with imidazo triazinone backbone and imidazo pyrazinone backbone for treatment of peripheral diseases” (H. LUNDBECK A/S, priority 2015, dated 2019).

The IC50 is the concentration that inhibits the measured activity by half.

SMILES strings stand for the structures.

One series relates to PDE1. Put plainly: PDE1 inhibition assay. In kind it is biochemical. The settings on record: 15 nM tritium labelled cAMP, SPA beads, 1 h at room temperature. The method, then:
Reactions were initiated by addition of the cyclic nucleotide substrate, and reactions were allowed to proceed for 1 h at room temperature before being terminated through mixing with 20 μL (0.2 mg) yttrium silicate SPA beads (PerkinElmer).

Series [1] is described as follows: Blood Brain Barrier penetration (brain-to-plasma distribution). The settings on record: male CD mice, subcutaneous 10 mg/kg; for Kp at 0.5 h / Kp at 2 h: mouse, brain/plasma, sc; for Brain concentration after 30 minutes / Plasma concentration after 30 minutes / Kp at 0.5 h: 30 min; for Kp at 0.5 h: read-out: Brain/Plasma ratio after 30 minutes; for Brain concentration after 120 minutes / Plasma concentration after 120 minutes / Kp at 2 h: 120 min; for Kp at 2 h: read-out: Brain/Plasma ratio after 120 minutes. The series is classed as in vivo. The method, then: Male CD mice (20-24 g) were housed pair-wise with free access to food and water for an acclimatization period of 3-7 days before initiation of experiments. Prior to dosing the animals were fasted overnight. During testing, mice were kept in individual cages. The brain-to-plasma distribution was assessed 30 minutes and 2 hours after subcutaneous administration of the test compound at a dose of 10 mg/kg (n=3 at each time point). The dose volume was 10 ml/kg using appropriate vehicle to solubilize each test compound. At the time of sampling, animals were anesthetized with isoflurane and a systemic blood sample collected by cardiac puncture into vacutainers containing sodium heparin as anti-coagulant. The blood was centrifuged at 3500 rpm for 10 minutes at 4° C. to obtain plasma. Following decapitation, brains were dissected out and transferred to pre-weighed vessels followed by tissue weights determination. Plasma and brains were stored at −80° C. until quantitative bioanalysis by LC-MS/MS. Results are expressed as ng/ml for plasma and ng/g for brain samples.

For the compound `C[C@@H]1CN(Cc2ncccn2)C[C@H]1c1nc2c(cnn2C2CCOCC2)c(=O)[nH]1` (single isomer, unassigned) [Reference compound, reference compound], in the series with PDE1, the IC50 was 2.5 µM.
As for `O=c1[nH]c(CN2CC(Oc3cccnc3)C2)cn2c(C3CCOCC3)ncc12` [Compound (P2), 6-[3-(pyridin-3-yloxy)-azetidin-1-ylmethyl]-3-(tetrahydropyran-4-yl)-7H-imidazo[1,5-a]pyrazin-8-one], in series [1], the “Brain concentration after 30 minutes” value is on record as “Below detection”, the “Plasma concentration after 30 minutes” value is 30 min.: 715 ng/mL, the “Brain concentration after 120 minutes” value is reported as “Below detection” and the “Plasma concentration after 120 minutes” value is listed as 120 min.: 11 ng/mL. The compound further registered an IC50 with PDE1 of 5.28 µM.
For `C[C@@H]1CN(Cc2ncccn2)C[C@H]1c1cn2c(C3CCOCC3)ncc2c(=O)[nH]1` (single isomer, unassigned) [Compound (P3, enantiomer 1)], in series [1], the “Brain concentration after 30 minutes” value is 30 min.: 67 ng/mL, the “Plasma concentration after 30 minutes” value is on record as 30 min.: 1620 ng/mL, the “Brain concentration after 120 minutes” value was 120 min.: 7 ng/mL and the “Plasma concentration after 120 minutes” value is reported as 120 min.: 226 ng/mL. In series [1], the Kp at 0.5 h is 0.04 and the Kp at 2 h was 0.03. This compound had a half-inhibitory concentration (IC50) with PDE1 of 3 µM.
Turning to `O=c1[nH]c(CN2CC(OCc3ccc(F)cc3)C2)nn2c(C3CCOCC3)ncc12` [Compound (P4)], in series [1], the “Brain concentration after 30 minutes” value is recorded as 30 min.: 125 ng/mL, the “Plasma concentration after 30 minutes” value is listed as 30 min.: 3380 ng/mL, the “Brain concentration after 120 minutes” value is recorded as 120 min.: 15 ng/mL and the “Plasma concentration after 120 minutes” value came to 120 min. 352 ng/mL.
`O=c1[nH]c(CN2CC(Oc3ccncc3)C2)cn2c(-c3ccc(F)cc3)ncc12` [Compound (P1), 3-(4-fluorophenyl)-6-((3-(pyridin-4-yloxy)azetidin-1-yl)methyl)imidazo[1,5-a]pyrazin-8(7H)-one]: in series [1], the “Brain concentration after 30 minutes” value is 30 min.: 42 ng/mL, the “Plasma concentration after 30 minutes” value was 30 min.: 719 ng/mL, the “Brain concentration after 120 minutes” value is listed as 120 min.: 7 ng/mL and the “Plasma concentration after 120 minutes” value is given as 120 min.: 86 ng/mL. Moreover, in series [1], the Kp at 0.5 h worked out at 0.06 and the Kp at 2 h amounted to 0.08. In addition, the IC50 in the series with PDE1 stood at 45.1 µM.
